Experiments:
[1] = system: human dermal fibroblasts (HDF); experiment: Cytotoxicity (resazurin assay, 72 h); assay type: cell-based; details: Fibroblast
Protocol: (§1) The cytotoxicity of flavonoids and their halogenated derivatives was determined as their ability to decrease the viability of human dermal fibroblasts (HDF) and doxorubicin-resistant human ovarian carcinomas (HOC/DOX). Both cell lines were cultivated in Dulbecco’s Modified Eagle’s Medium supplemented with fetal bovine serum (FBS, 10% v/v) and 1 × antibiotic antimycotic solution and incubated at 37 °C in the atmosphere of 5% CO2. The experiment was performed according to a previously published method. Briefly, 1 × 10^5 cells/mL were seeded into a 96-well plate (100 µL/well). After 24 h, flavonoids and their derivatives were administered at the concentration range of 31.25–500 µM. After 72 h, the viability was determined by resazurin assay (0.03 mg/mL of resazurin in PBS), where the fluorescence was measured after 2 h of incubation by the SpectraMax i3x microplate reader at a wavelength of 560/590 nm (excitation/emission). The concentration inhibiting half of the population (IC50) was determined using nonlinear regression in GraphPad Prism software. The selectivity index was calculated as the ratio between the IC50 for HDF (control, non-cancerous cells) and the IC50 for HOC/DOX (cancer cells).

[2] = system: doxorubicin-resistant human ovarian carcinoma (HOC/DOX); experiment: Cytotoxicity (resazurin assay, 72 h); assay type: cell-based; details: for IC50: Homo sapiens, 72 h, resazurin assay; for SI (selectivity index): ratio IC50 for HDF / IC50 for HOC/DOX
Protocol: as §1

[3] = system: Vibrio campbellii BAA 1119 (AI-2); experiment: Viability of the quorum-sensing reporter culture (resazurin assay), AI-2 strain; assay type: cell-based; details: BAA1119, V. campbellii BAA 1119, resazurin assay, read-out: IC50 (concentration that halved the viability)
Excerpt: Commercially available strains of Vibrio campbellii were used to evaluate the ability of flavonoids and their derivatives to inhibit bacterial quorum sensing. V. campbellii uses two types of autoinducing molecules for its communication—N-acyl-homoserine lactones (Autoinducer I, AI-1, strain BAA 1118) and furanosyl borate diester (Autoinducer II, AI-2, strain BAA 1119). AI-1-based communication is mainly used by Gram-negative bacteria, while AI-2-based communication is found in both Gram-negative and Gram-positive bacteria. The mutant strains of V. campbellii BA1118 and BA1119 respond only to AI-1 or AI-2, respectively, and the response to the respective AI concentration is measured as luminescence. The higher the AI concentration, the higher the luminescence signal. The ability to inhibit the communication was expressed as the selectivity index (SI), calculated as the ratio between the concentration that halved the viability (IC50) and the concentration that halved the communication (EC50) of the respective V. campbellii strains. […] The antimicrobial activity of quorum-sensing inhibitors is undesirable because it creates a selection pressure and can lead to the development of resistance.
The inhibition of bacterial extracellular communication was measured using Vibrio campbellii strains BAA-1118 and BAA-1119. The experiment was performed according to the methods of Szemerédi et al.. Briefly, 5 × 10^5 CFU/mL (colony-forming units per milliliter) were seeded in an Autoinducer Bioassay medium (NaCl 17.5 g/L, MgSO4 12.3 g/L, Casamino acids 2 g/L, 10 mL of 1 M potassium phosphate pH 7.0, 10 mL of 0.1 M L-arginine, and 10 mL of glycerol in 970 mL of deionized water) in a 96-well plate. Immediately, the tested compounds were added at the final concentration of 0.2–200 µM and luminescence was recorded for 16 h by a SpectraMax i3x microplate reader set at 30 °C, an integration time of 10,000 ms, and shaking for 60 s before measurement. […] The selectivity index was calculated as the […]. The EC50 and IC50 were calculated using GraphPad Prism software version 5.00 for Windows with a nonlinear regression curve fit.

[4] = ABTS cation radical scavenging; details: vitamin C equivalent antioxidant capacity
Protocol: (§2) To further elucidate how halogenation affects other properties of the flavonoids studied, their 2,2′-azino-bis-(3-ethylbenzothiazoline-6-sulfonic acid) cation (ABTS) and 1,1-diphenyl-2-picrylhydrazyl (DPPH) radical scavenging, the Folin–Ciocalteu reagent (FCR) reducing, the ferric-reducing antioxidant power (FRAP), and the anti-lipoperoxidation activities were evaluated by in vitro methods (Supplementary Information Tables S1 and S2).
(§3) The antiradical activity was evaluated by the ability to scavenge ABTS and DPPH radicals. Reducing capacity was assessed by the ability to reduce the Folin–Ciocalteu reagent (FCR) and ferric ions (FRAP). The ability to inhibit lipid peroxidation of pooled male rat microsomal liver membranes induced by tert-butyl hydroperoxide was also evaluated and the results were expressed as IC50 values.

[5] = Folin-Ciocalteu reagent reduction; details: gallic acid equivalents
Protocol: as §2, §3

[6] = system: multidrug-resistant S. aureus; experiment: Sensitization of antibiotic-resistant bacteria (compound plus breakpoint antibiotic concentration); assay type: cell-based, Staphylococcus aureus; details: for Effect on viability in combination with chloramphenicol: chloramphenicol 8 mg/L; for Effect on viability in combination with chloramphenicol / Effect on viability in combination with gentamicin: 24 h; for Effect on viability in combination with gentamicin: gentamicin 1 mg/L
Protocol: Clinically relevant antibiotics were selected for sensitization testing according to the European Committee on Antimicrobial Susceptibility Testing (EUCAST). Neither colistin and imipenem at breakpoint concentrations (according to EUCAST, […] and […]) affected the growth of the multidrug-resistant clinical strain of P. aeruginosa. Similarly, neither chloramphenicol and gentamicin at breakpoint concentrations ([…], respectively) affected the multidrug-resistant clinical strain of S. aureus. Flavonoids and their derivatives (1–40 µM) were used in combination therapy, along with the breakpoint concentration of antibiotics. After co-incubation, the minimum inhibitory concentration of flavonoids inhibiting the visible growth of bacteria was determined (Table 2).
Clinical isolates of P. aeruginosa and S. aureus were obtained from the General University Hospital in Prague (Prague, Czech Republic). P. aeruginosa was resistant to ciprofloxacin, oxacillin, ticarcillin, colistin, gentamicin, and imipenem. S. aureus was resistant to ciprofloxacin, gentamicin, erythromycin, chloramphenicol, clindamycin, oxacillin, cefotaxime, and vancomycin. Bacteria were cultivated in Mueller–Hinton broth (MH broth, Merck). The susceptibility of the bacteria was evaluated by the minimum inhibitory concentrations (MIC). The MIC of derivatives in the presence of the antibiotic cut-off concentration was determined according to ISO 20776-1: 2020. The antibiotic cut-off concentration was chosen according to the European Committee on Antimicrobial Susceptibility Testing (EUCAST, Clinical breakpoints—bacteria (ver. 11.0), 1 January 2021). The 40 µM concentration of the derivatives was chosen as the highest concentration for the tests. Cell viability was determined by measuring absorbance (A590 nm) after 24 h incubation at 37 °C, 150 rpm.

SMILES	IC50 [1] [µM]	IC50 [2] [µM]	SI (selectivity index) [2]	IC50 [3] [µM]	ABTS [CEAC] [4] [CEAC]	FCR [GAE] [5] [GAE]	Effect on viability in combination with chloramphenicol ([6]; flavonoid 40 µM)	Effect on viability in combination with gentamicin ([6]; flavonoid 40 µM)	Effect on viability in combination with gentamicin ([6]; flavonoid 5 µM)	Gentamicin-resistant phenotype of S. aureus (result in words) ([6]; gentamicin breakpoint concentration, compound 5 µM)	Growth in combination with chloramphenicol ([6]; chloramphenicol breakpoint concentration, compound 40 µM as stated in the text) [%]
O=C1c2c(O)cc(O)cc2OC(c2ccc(O)c(O)c2)C1O (stereo not shown) [compound 1, taxifolin, reference compound]	93.8 ± 3.7	183	0.51	80 ± 1.7	1.08 ± 0.02	1.92 ± 0.05	-				
O=c1c(O)c(-c2ccc(O)c(O)c2)oc2cc(O)cc(O)c12 [compound 2, quercetin, reference compound]	54.8 ± 2.7	182	0.30	10.6 ± 0.5	2.87 ± 0.23	2.33 ± 0.05	-	-			
COc1cc(C2Oc3cc(-c4oc5cc(O)cc(O)c5c(=O)c4O)ccc3OC2CO)ccc1O (stereo not shown) [compound 4, 2,3-dehydrosilybin AB, reference compound]		23.5 ± 1.5	0.71	25.3 ± 1	1.46 ± 0.08	1.68 ± 0.03	-		reversion of resistance [5 µM]	reversed	
COc1cc([C@@H]2Oc3c(O)cc(-c4oc5cc(O)cc(O)c5c(=O)c4O)cc3[C@H]2CO)ccc1O [compound 6, 2,3-dehydrosilychristin A, reference compound]	44.2 ± 2.1	75.7 ± 8.6	0.58	11 ± 0.4	2.10	2.43		-			69
O=C1c2c(cc(O)c(Br)c2O)O[C@H](c2ccc(O)c(O)c2)[C@H]1O [compound 7, 6-Bromotaxifolin]	122	347	0.35	19.7 ± 1	0.97 ± 0.03	1.70 ± 0.01	-				
O=C1c2c(O)c(Br)c(O)c(Br)c2O[C@H](c2ccc(O)c(O)c2)[C@H]1O [compound 8, 6,8-dibromotaxifolin]	158	233	0.68	109.3 ± 0.8	1.04 ± 0.05	2.08 ± 0.04	-				
O=c1c(O)c(-c2ccc(O)c(O)c2)oc2c(Br)c(O)cc(O)c12 [compound 9, 8-bromoquercetin]	132	171	0.77	1.1 ± 0.1	2.92 ± 0.28	2.01 ± 0.06	-	-			
O=c1c(O)c(-c2ccc(O)c(O)c2)oc2c(Br)c(O)c(Br)c(O)c12 [compound 10, 6,8-dibromoquercetin]	55 ± 1.9	54.2 ± 0.3	1.02	3.5 ± 0.1	2.63 ± 0.19	1.70 ± 0.02	-	-			
COc1cc([C@H]2Oc3cc([C@H]4Oc5cc(O)c(Br)c(O)c5C(=O)[C@@H]4O)ccc3O[C@@H]2CO)ccc1O [compound 11, 6-Bromosilybin A]	95.6 ± 3	186	0.51	51.5 ± 0.6	0.60 ± 0.04	1.06 ± 0.04	-				
COc1cc([C@H]2Oc3cc([C@H]4Oc5c(Br)c(O)c(Br)c(O)c5C(=O)[C@@H]4O)ccc3O[C@@H]2CO)ccc1O [compound 12, 6,8-dibromosilybin A]	102	304	0.34	80.5 ± 4.8	0.30 ± 0.04	0.85 ± 0.03	-				
COc1cc([C@@H]2Oc3cc([C@H]4Oc5cc(O)c(Br)c(O)c5C(=O)[C@@H]4O)ccc3O[C@H]2CO)ccc1O [compound 13, 6-Bromosilybin B]	76.4 ± 1.1	162	0.47	52.7 ± 0.6	0.75 ± 0.02	1.17 ± 0.04	-				
